According to patent US8158657B2, “Heterocycles substituted pyridine derivatives and antifungal agent containing thereof” (Eisai R&D Management Co., Ltd., priority 2005, dated 2012):
Values after ≈ are worked out from the molar mass of the structure shown.

Columns and labels:
[1] = test system: C. albicans CAF2-1 strain; experiment: Anti-Candida activity, MIC measurement; type: cell-based; settings: CAF21STRAIN, C. albicans CAF2-1, RPMI1640, 42-48 hours at 35° C., visual inspection, read-out: Anti-Candida Activity (minimum inhibitory concentration, MIC)
Experimental: (§1) For the C. albicans CAF2-1 strain, a fungal suspension from a standing culture for 48 hours at 30° C. in a Sabouraud dextrose liquid culture medium (SDB) was diluted with RPMI1640 medium to adjust a fungal suspension of 1.2×10^3 cells/mL. For the A. fumigatus Tsukuba strain, −80° C. stored strain was diluted with RPMI1640 medium to adjust to a fungal suspension of 4.5×10^3 cells/mL.
(§2) Using a U-bottomed 96 well plate, 8 samples/plate (A to H) of sample dilution solutions were prepared. On the 2nd to 12th rows were dispensed 10 μL of dimethyl sulfoxide solution. Weighted sample was dissolved in dimethyl sulfoxide to prepare a 2.5 mg/mL solution, 20 μL of this solution was added to the first row of the prepared plate, and 12 steps of two-fold step dilutions (10 μL of solution+10 μL of dimethyl sulfoxide solution) were performed on the plate. This sample dilution solution was dispensed in the amount of 1 μL to a flat-bottomed 96 well plate for MIC measurement to prepare a sample dilution plate.
(§3) The fungal suspension prepared in (1) was used in the amount of 99 μL/well to inoculate the flat-bottomed 96 well plate containing 1 μL/well of the test compound dilution prepared in (2), and a standing culture was carried out aerobically for 42-48 hours at 35° C.

[2] = test system: A. fumigatus Tsukuba strain; experiment: Anti-Aspergillus activity, MIC measurement; type: cell-based; settings: RPMI1640, 42-48 hours at 35° C., visual inspection, read-out: Anti-Aspergillus Activity (minimum inhibitory concentration, MIC)
Experimental: as §1, §2, §3

| Compound | MIC [1] | MIC [2] |
| --- | --- | --- |
| Cc1ccc(Oc2ccc(Cc3cc(-c4ccc(N)nc4N)on3)s2)cc1 [Example 106, 3-(3-(5-p-Tolyloxy-thiophen-2-ylmethyl)-isoxazol-5-yl)-pyridin-2,6-diamine] | 0.78 µg/mL (≈ 2.06 µM) | 0.2 µg/mL (≈ 0.528 µM) |
| Nc1ccc(-c2cc(Cc3ccc(OCc4ccncc4)cc3)no2)c(N)n1 [Example 107, 3-(3-(4-(Pyridin-4-ylmethoxy)-benzyl)-isoxazol-5-yl)-pyridin-2,6-diamine] | 0.78 µg/mL (≈ 2.09 µM) | 0.78 µg/mL (≈ 2.09 µM) |
| Nc1ccc(-c2cc(Cc3ccc(OCc4cccnc4)cc3)no2)c(N)n1 [Example 108, 3-(3-(4-(Pyridin-3-ylmethoxy)-benzyl)-isoxazol-5-yl)-pyridin-2,6-diamine] | 1.56 µg/mL (≈ 4.18 µM) | 3.13 µg/mL (≈ 8.38 µM) |
| Nc1ccc(-c2cc(Cc3ccc(COc4cc(F)ccn4)cc3)no2)c(N)n1 [Example 117, 3-(3-(4-(4-Fluoro-pyridin-2-yloxymethyl)-benzyl)-isoxazol-5-yl)-pyridin-2,6-diamine] | 1.56 µg/mL (≈ 3.99 µM) | 0.78 µg/mL (≈ 1.99 µM) |
| Nc1ccc(-c2cc(Cc3cccc(OCc4ccccn4)c3)no2)c(N)n1 [Example 118, 3-(3-(3-(Pyridin-2-ylmethoxy)-benzyl)-isoxazol-5-yl)-pyridin-2,6-diamine] | 0.78 µg/mL (≈ 2.09 µM) | 3.13 µg/mL (≈ 8.38 µM) |
| Nc1ccc(-c2cc(Cc3cccc(OCc4ccccc4)c3)no2)c(N)n1 [Example 119, 3-(3-(3-Benzyloxy-benzyl)-isoxazol-5-yl)-pyridin-2,6-diamine] | 0.39 µg/mL (≈ 1.05 µM) | 0.78 µg/mL (≈ 2.09 µM) |
| Nc1ccc(-c2cc(Cc3ccc(Oc4ccccc4)cn3)no2)c(N)n1 [Example 121, 3-(3-(5-Phenoxy-pyridin-2-ylmethyl)-isoxazol-5-yl)-pyridin-2,6-diamine] | 0.39 µg/mL (≈ 1.09 µM) | 0.78 µg/mL (≈ 2.17 µM) |
| Nc1ccc(-c2cc(Cc3ccc(OCc4ccc(Cl)cn4)cc3)no2)c(N)n1 [Example 122, 3-(3-(4-(5-Chloro-pyridin-2-ylmethoxy)-benzyl)-isoxazol-5-yl)-pyridin-2,6-diamine] | 1.56 µg/mL (≈ 3.82 µM) | 0.78 µg/mL (≈ 1.91 µM) |
| Nc1ccc(-c2cc(Cc3cccc(Oc4ccccc4)c3)no2)c(N)n1 [Example 123, 3-(3-(3-Phenoxy-benzyl)-isoxazol-5-yl)-pyridin-2,6-diamine] | 0.2 µg/mL (≈ 0.558 µM) | 0.39 µg/mL (≈ 1.09 µM) |
| CCCCOc1cccc(Cc2cc(-c3ccc(N)nc3N)on2)c1 [Example 124, 3-(3-(3-Butoxy-benzyl)-isoxazol-5-yl)-pyridin-2,6-diamine] | 0.2 µg/mL (≈ 0.591 µM) | 0.39 µg/mL (≈ 1.15 µM) |
| Nc1ccc(-c2cc(Cc3cccc(OCC4CC4)c3)no2)c(N)n1 [Example 125, 3-(3-(3-Cyclopropylmethoxy-benzyl)-isoxazol-5-yl)-pyridin-2,6-diamine] | 0.1 µg/mL (≈ 0.297 µM) | 0.39 µg/mL (≈ 1.16 µM) |
| CCCCOc1ccc(Cc2cc(-c3ccc(N)nc3N)on2)cc1 [Example 126, 3-(3-(4-Butoxy-benzyl)-isoxazol-5-yl)-pyridin-2,6-diamine] | 1.56 µg/mL (≈ 4.61 µM) | 0.39 µg/mL (≈ 1.15 µM) |
| Nc1ccc(-c2cc(Cc3ccc(OCc4ccccc4)cn3)no2)c(N)n1 [Example 127, 3-(3-(5-Benzyloxy-pyridin-2-ylmethyl)-isoxazol-5-yl)-pyridin-2,6-diamine] | 0.78 µg/mL (≈ 2.09 µM) | 1.56 µg/mL (≈ 4.18 µM) |
| Nc1ccc(-c2cc(Cc3ccc(NCc4ccccc4)cc3)no2)c(N)n1 [Example 128, 3-(3-(4-Benzylamino-benzyl)-isoxazol-5-yl)-pyridin-2,6-diamine] | 0.2 µg/mL (≈ 0.538 µM) | 0.39 µg/mL (≈ 1.05 µM) |
| Nc1ccc(-c2cc(Cc3ccc(Nc4ccccc4)cc3)no2)c(N)n1 [Example 129, 3-(3-(4-Phenylamino-benzyl)-isoxazol-5-yl)-pyridin-2,6-diamine] | 0.2 µg/mL (≈ 0.56 µM) | 0.2 µg/mL (≈ 0.56 µM) |
| CCCCc1ccc(Cc2cc(-c3ccc(N)nc3N)on2)cc1 [Example 130, 3-(3-(4-Butyl-benzyl)-isoxazol-5-yl)-pyridin-2,6-diamine] | 1.56 µg/mL (≈ 4.84 µM) | 0.2 µg/mL (≈ 0.62 µM) |
| Nc1ccc(-c2cc(Cc3ccc(COc4ccc(F)cc4)nc3)no2)c(N)n1 [Example 132, 3-(3-(6-(4-Fluoro-phenoxymethyl)-pyridin-3-ylmethyl)-isoxazol-5-yl)pyridin-2,6-diamine] | 3.13 µg/mL (≈ 8 µM) | 3.13 µg/mL (≈ 8 µM) |
| Nc1ccc(-c2cc(Cc3ccc(Oc4ccccc4F)nc3)no2)c(N)n1 [Example 134, 3-(3-(6-(2-Fluoro-phenoxy)-pyridin-3-ylmethyl)-isoxazol-5-yl)-pyridin-2,6-diamine] | 0.39 µg/mL (≈ 1.03 µM) | 0.78 µg/mL (≈ 2.07 µM) |
| Nc1ccc(-c2cc(Cc3ccc(OCc4ccsc4)cc3)no2)c(N)n1 [Example 136, 3-(3-(4-(Thiophen-3-ylmethoxy)-benzyl)-isoxazol-5-yl)-pyridin-2,6-diamine] | 0.2 µg/mL (≈ 0.528 µM) | 0.2 µg/mL (≈ 0.528 µM) |

| Compound | MIC [1] | MIC [2] |
| --- | --- | --- |
| Nc1ccc(-c2cc(Cc3ccc(OC4CCCC4)cc3)no2)c(N)n1 [Example 137, 3-(3-(4-Cyclopentyloxy-benzyl)-isoxazol-5-yl)-pyridin-2,6-diamine] | 0.78 µg/mL (≈ 2.23 µM) | 1.56 µg/mL (≈ 4.45 µM) |
| Nc1ccc(-c2cc(Cc3ccc(Oc4cccnc4)cc3)no2)c(N)n1 [Example 138, 3-(3-(4-(Pyridin-3-yloxy)-benzyl)-isoxazol-5-yl)-pyridin-2,6-diamine] | 0.78 µg/mL (≈ 2.17 µM) | 0.78 µg/mL (≈ 2.17 µM) |
| Nc1ccc(-c2cc(Cc3ccc(OC4CCCCC4)cc3)no2)c(N)n1 [Example 139, 3-(3-(4-Cyclohexyloxy-benzyl)-isoxazol-5-yl)-pyridin-2,6-diamine] | 1.56 µg/mL (≈ 4.28 µM) | > 25 µg/mL |
| Nc1ccc(-c2cc(Cc3ccc(CCc4ccco4)cc3)no2)c(N)n1 [Example 140, 3-(3-(4-(2-Furan-2-yl-ethyl)-benzyl)-isoxazol-5-yl)-pyridin-2,6-diamine] | 0.2 µg/mL (≈ 0.555 µM) | 0.78 µg/mL (≈ 2.16 µM) |
| Nc1ccc(-c2cc(Cc3ccc(Oc4ccc(F)cc4)cc3)no2)c(N)n1 [Example 141, 3-(3-(4-(4-Fluoro-phenoxy)-benzyl)-isoxazol-5-yl)-pyridin-2,6-diamine] | 0.39 µg/mL (≈ 1.04 µM) | 0.2 µg/mL (≈ 0.531 µM) |
| Nc1ccc(-c2cc(Cc3ccc(Oc4cccc(F)c4)cc3)no2)c(N)n1 [Example 142, 3-(3-(4-(3-Fluoro-phenoxy)-benzyl)-isoxazol-5-yl)-pyridin-2,6-diamine] | 0.39 µg/mL (≈ 1.04 µM) | 0.39 µg/mL (≈ 1.04 µM) |
| Nc1ccc(-c2cc(Cc3ccc(CCC4CCCO4)cc3)no2)c(N)n1 (stereo not shown) [Example 143] | 0.39 µg/mL (≈ 1.07 µM) | 0.78 µg/mL (≈ 2.14 µM) |
| Nc1ccc(-c2cc(Cc3ccc(Oc4ccccc4F)cc3)no2)c(N)n1 [Example 144, 3-(3-(4-(2-Fluoro-phenoxy)-benzyl)-isoxazol-5-yl)-pyridin-2,6-diamine] | 0.39 µg/mL (≈ 1.04 µM) | 0.2 µg/mL (≈ 0.531 µM) |
| Nc1ccc(-c2cc(Cc3cncc(Oc4ccccc4)c3)no2)c(N)n1 [Example 145, 3-(3-(5-Phenoxy-pyridin-3-ylmethyl)-isoxazol-5-yl)-pyridin-2,6-diamine] | 6.25 µg/mL (≈ 17.4 µM) | 12.5 µg/mL (≈ 34.8 µM) |
| Nc1ccc(-c2cc(Cc3cccc(-c4ccccn4)c3)no2)c(N)n1 [Example 146, 3-(3-(3-Pyridin-2-yl-benzyl)-isoxazol-5-yl)-pyridin-2,6-diamine] | 6.25 µg/mL (≈ 18.2 µM) | > 25 µg/mL |
| Nc1ccc(-c2cc(Cc3cccc(-c4ccccc4)c3)no2)c(N)n1 [Example 147, 3-(3-Biphenyl-3-ylmethyl-isoxazol-5-yl)-pyridin-2,6-diamine] | 1.56 µg/mL (≈ 4.56 µM) | 1.56 µg/mL (≈ 4.56 µM) |
| Nc1ccc(-c2cc(Cc3ccc(COc4ccccc4)cc3)no2)c(N)n1 [Example 148, 3-(3-(4-Phenoxymethyl-benzyl)-isoxazol-5-yl)-pyridin-2,6-diamine] | 0.2 µg/mL (≈ 0.537 µM) | 0.2 µg/mL (≈ 0.537 µM) |
| Nc1ccc(-c2cc(Cc3ccc(COc4ncccc4F)cc3)no2)c(N)n1 [Example 149, 3-(3-(4-(3-Fluoro-pyridin-2-yloxymethyl)-benzyl)-isoxazol-5-yl)-pyridin-2,6-diamine] | 6.25 µg/mL (≈ 16 µM) | 1.56 µg/mL (≈ 3.99 µM) |
| Nc1ccc(-c2cc(Cc3ccc(OCc4ccccn4)c(F)c3)no2)c(N)n1 [Example 150, 3-(3-(3-Fluoro-4-(pyridin-2-ylmethoxy)-benzyl)-isoxazol-5-yl)-pyridin-2,6-diamine] | 0.39 µg/mL (≈ 0.996 µM) | 0.78 µg/mL (≈ 1.99 µM) |
| Nc1ccc(-c2cc(Cc3ccc(OCc4ccc(F)c(F)c4)nc3)no2)c(N)n1 [Example 152, 3-(3-(6-(3,4-Difluoro-benzyloxy)-pyridin-3-ylmethyl)-isoxazol-5-yl)-pyridin-2,6-diamine] | 0.78 µg/mL (≈ 1.91 µM) | 0.39 µg/mL (≈ 0.953 µM) |
| Nc1ccc(-c2cc(Cc3ccc(OCc4ccc(F)cc4F)nc3)no2)c(N)n1 [Example 153, 3-(3-(6-(2,4-Difluoro-benzyloxy)-pyridin-3-ylmethyl)-isoxazol-5-yl)-pyridin-2,6-diamine] | 1.56 µg/mL (≈ 3.81 µM) | 0.39 µg/mL (≈ 0.953 µM) |
| Nc1ccc(-c2cc(Cc3ccc(COc4ccccn4)nc3)no2)c(N)n1 [Example 154] | 0.78 µg/mL (≈ 2.08 µM) | 1.56 µg/mL (≈ 4.17 µM) |
| Cc1ccc(Cc2ccc(Cc3cc(-c4ccc(N)nc4N)on3)s2)cc1 [Example 156, 3-(3-(5-(4-Methyl-benzyl)-thiophen-2-ylmethyl)-isoxazol-5-yl)-pyridin-2,6-diamine] | 0.2 µg/mL (≈ 0.531 µM) | 0.2 µg/mL (≈ 0.531 µM) |
| Nc1ccc(-c2cc(Cc3ccc(OCc4ccc(F)cn4)c(F)c3)no2)c(N)n1 [Example 157, 3-(3-(3-Fluoro-4-(5-fluoro-pyridin-2-ylmethoxy)-benzyl)-isoxazol-5-yl)pyridin-2,6-diamine] | 3.13 µg/mL (≈ 7.65 µM) | 0.78 µg/mL (≈ 1.91 µM) |
